A word on the IC50: it is the concentration at which inhibition is half-maximal.

Read-outs that look alike come from different tables or passages of the source.

The target in assay [1] is T1, Axl (Homo sapiens (Human), UniProt P30530). The note with it: read-out: IC50 Axl.
The target in assay [2] is T2, Tyro3 (Homo sapiens (Human), UniProt Q06418). The note with it: read-out: IC50 Tyro3.
The target in the next assay is MerTK (Homo sapiens (Human), UniProt Q12866). The note with it: read-out: IC50 MerTK.
The target of assay [3] is T1, Axl. As to the kind of experiment: biochemical.
Assay [4] deals with T2, Tyro3. The assay can be described thus: biochemical.

T2 sequence (Q06418 41-890 limits assumed): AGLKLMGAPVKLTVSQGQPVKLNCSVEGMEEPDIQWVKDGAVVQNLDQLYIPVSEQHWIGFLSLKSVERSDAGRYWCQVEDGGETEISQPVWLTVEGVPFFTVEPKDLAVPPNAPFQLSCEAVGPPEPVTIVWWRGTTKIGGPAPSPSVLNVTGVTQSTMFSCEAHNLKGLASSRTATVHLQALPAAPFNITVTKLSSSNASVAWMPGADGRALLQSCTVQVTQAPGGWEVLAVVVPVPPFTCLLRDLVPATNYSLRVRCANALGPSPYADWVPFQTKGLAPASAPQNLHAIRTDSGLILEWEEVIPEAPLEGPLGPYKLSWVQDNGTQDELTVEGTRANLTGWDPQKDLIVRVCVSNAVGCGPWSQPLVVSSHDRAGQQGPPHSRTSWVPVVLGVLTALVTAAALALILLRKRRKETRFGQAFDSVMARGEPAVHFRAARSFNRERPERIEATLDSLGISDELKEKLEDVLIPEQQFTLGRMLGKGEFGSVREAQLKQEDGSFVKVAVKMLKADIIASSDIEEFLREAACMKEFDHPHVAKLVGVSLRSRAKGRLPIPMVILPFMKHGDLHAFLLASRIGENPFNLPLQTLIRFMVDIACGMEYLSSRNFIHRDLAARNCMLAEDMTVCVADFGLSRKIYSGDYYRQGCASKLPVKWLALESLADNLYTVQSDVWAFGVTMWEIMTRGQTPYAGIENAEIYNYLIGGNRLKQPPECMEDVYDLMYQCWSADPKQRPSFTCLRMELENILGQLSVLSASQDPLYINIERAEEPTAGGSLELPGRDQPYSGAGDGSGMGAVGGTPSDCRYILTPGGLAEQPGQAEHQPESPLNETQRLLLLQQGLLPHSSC
T1 sequence (P30530 26-894 limits assumed): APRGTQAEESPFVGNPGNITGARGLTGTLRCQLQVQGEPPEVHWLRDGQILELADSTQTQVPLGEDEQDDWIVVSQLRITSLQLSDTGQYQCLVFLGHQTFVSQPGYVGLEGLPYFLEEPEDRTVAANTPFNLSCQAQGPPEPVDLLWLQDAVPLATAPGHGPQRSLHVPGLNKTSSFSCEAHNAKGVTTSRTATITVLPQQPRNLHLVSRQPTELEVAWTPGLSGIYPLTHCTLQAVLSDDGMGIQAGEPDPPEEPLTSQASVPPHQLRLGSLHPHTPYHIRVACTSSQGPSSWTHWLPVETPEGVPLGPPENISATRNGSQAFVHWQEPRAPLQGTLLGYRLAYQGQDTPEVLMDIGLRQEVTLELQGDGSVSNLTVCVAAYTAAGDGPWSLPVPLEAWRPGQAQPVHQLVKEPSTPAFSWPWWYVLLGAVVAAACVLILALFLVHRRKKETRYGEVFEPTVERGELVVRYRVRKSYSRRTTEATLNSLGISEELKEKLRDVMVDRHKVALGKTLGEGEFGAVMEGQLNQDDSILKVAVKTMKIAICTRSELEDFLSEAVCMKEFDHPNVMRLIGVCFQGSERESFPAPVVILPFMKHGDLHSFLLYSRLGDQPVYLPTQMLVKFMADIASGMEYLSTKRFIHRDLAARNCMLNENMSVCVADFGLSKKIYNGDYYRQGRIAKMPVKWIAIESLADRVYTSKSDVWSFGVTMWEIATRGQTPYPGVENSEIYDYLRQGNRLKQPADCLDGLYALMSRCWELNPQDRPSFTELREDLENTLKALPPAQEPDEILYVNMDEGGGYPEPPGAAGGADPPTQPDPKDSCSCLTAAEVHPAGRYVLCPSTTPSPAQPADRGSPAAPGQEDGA
Sequence of MerTK (Q12866 21-999 limits assumed): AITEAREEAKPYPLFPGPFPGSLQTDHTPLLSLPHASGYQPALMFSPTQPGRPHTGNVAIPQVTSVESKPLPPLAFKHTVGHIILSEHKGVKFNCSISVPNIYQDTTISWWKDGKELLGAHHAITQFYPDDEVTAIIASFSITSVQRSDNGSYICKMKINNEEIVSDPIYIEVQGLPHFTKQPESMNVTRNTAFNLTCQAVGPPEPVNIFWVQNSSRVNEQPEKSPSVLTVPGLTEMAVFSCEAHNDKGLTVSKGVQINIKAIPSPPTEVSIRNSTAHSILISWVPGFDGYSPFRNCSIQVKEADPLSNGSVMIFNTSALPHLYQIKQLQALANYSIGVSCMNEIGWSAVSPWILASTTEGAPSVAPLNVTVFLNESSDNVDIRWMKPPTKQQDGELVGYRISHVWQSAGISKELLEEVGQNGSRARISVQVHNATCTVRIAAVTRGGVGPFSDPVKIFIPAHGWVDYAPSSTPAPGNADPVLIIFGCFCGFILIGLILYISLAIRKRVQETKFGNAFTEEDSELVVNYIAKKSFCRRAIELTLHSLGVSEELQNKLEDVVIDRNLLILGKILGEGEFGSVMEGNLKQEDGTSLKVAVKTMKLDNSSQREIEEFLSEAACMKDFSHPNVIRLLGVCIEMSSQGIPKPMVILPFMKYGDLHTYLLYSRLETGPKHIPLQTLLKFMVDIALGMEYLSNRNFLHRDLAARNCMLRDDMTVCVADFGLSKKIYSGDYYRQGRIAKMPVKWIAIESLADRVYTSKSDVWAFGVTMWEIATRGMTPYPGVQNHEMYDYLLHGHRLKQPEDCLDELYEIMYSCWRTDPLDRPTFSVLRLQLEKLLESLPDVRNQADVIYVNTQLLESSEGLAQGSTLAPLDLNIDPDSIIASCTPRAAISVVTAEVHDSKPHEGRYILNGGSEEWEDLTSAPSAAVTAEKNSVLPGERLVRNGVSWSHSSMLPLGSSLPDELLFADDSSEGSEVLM

In the case of `CCCCNc1ncc(-c2ccc(C=C3CCN(C(C)C)CC3)cn2)c(N[C@H]2CC[C@H](O)CC2)n1` [UNC4340A], the IC50 is 9.2 nM at Axl [1], 8.5 nM on Tyro3 [2] and 1.1 nM on MerTK.
The matching figures for `CCCCNc1ncc(-c2ccc(CC3CCN(C)CC3)cn2)c(N[C@H]2CC[C@H](O)CC2)n1` [UNC4337A, Trans-4-((2-(butylamino)-5-(5-((1-methylpiperidin-4-yl)methyl)pyridin-2-yl)pyrimidin-4-yl)amino)cyclohexan-1-ol]: 74 nM, 66 nM and 4.4 nM.
In the case of `CCCCNc1ncc(-c2ccc(C(=O)NC3CCN(C)CC3)o2)c(N[C@H]2CC[C@H](O)CC2)n1` [UNC3181A], the IC50 against Axl [3] was 1030 nM; at Tyro3 [4] it was 507 nM.
Regarding `CCCCNc1ncc(-c2cnccn2)c(N[C@H]2CC[C@H](O)CC2)n1` [UNC2794A], the IC50 against Axl [3] turned out to be 604 nM; against Tyro3 [4], 158 nM.
The matching figures for `CCCCNc1ncc(C(=O)NCC2CCN(C3CCCC3)CC2)c(N[C@H]2CC[C@H](O)CC2)n1` [UNC2743A]: 166 nM and 84 nM.
For `CCCCNc1ncc(-c2ccc3ccccc3n2)c(N[C@H]2CC[C@H](O)CC2)n1` [UNC2860A], in that order: 30000 nM and 755 nM.
The matching figures for `CCCCNc1ncc(-c2cc(NC(C)C)ncn2)c(N[C@H]2CC[C@H](O)CC2)n1` [UNC3192A]: 86 nM and 77 nM.
Take `CCCCNc1ncc(-c2cc(N3CCN(C)CC3)ncn2)c(N[C@H]2CC[C@H](O)CC2)n1` [UNC3197A]: the IC50 was 1680 nM against Axl [3] and 1170 nM against Tyro3 [4].
For `CCCCNc1ncc(-c2ncc(COCc3ccccc3)s2)c(N[C@H]2CC[C@H](O)CC2)n1` [UNC2863A], in that order: 2610 nM and 1220 nM.
The matching figures for `CCCCNc1ncc(C(=O)NCCc2ccc(F)cc2)c(N[C@H]2CC[C@H](O)CC2)n1` [UNC1850A]: 1640 nM and 1210 nM.
For the compound `CCCCNc1ncc(-c2ccc(CNCc3ccncc3)cn2)c(N[C@H]2CC[C@H](O)CC2)n1` [UNC2571A], the 50% inhibitory concentration (IC50) is 44 nM against Axl [3] and 18 nM against Tyro3 [4].
For the compound `CCCCNc1ncc(C(=O)NCC2CCN(C)CC2)c(N[C@H]2CC[C@H](O)CC2)n1` [UNC2742A], the IC50 against Axl [3] was 534 nM; at Tyro3 [4], 247 nM.
The matching figures for `CCCCNc1ncc(-c2ccc(C#CCN3CCN(C)CC3)cn2)c(N[C@H]2CC[C@H](O)CC2)n1` [UNC2793A]: 153 nM and 60 nM.
For `CCCCNc1ncc(C(=O)NC2CCCCCC2)c(N[C@H]2CC[C@H](O)CC2)n1` [UNC2734A], in that order: 665 nM and 505 nM.
The matching figures for `CCCCNc1ncc(-c2cc(NC(C)(C)C)ncn2)c(N[C@H]2CC[C@H](O)CC2)n1` [UNC3200A]: 480 nM and 259 nM.
Consider `CCCCNc1ncc(C(=O)NCCCN2CCOCC2)c(N[C@H]2CC[C@H](O)CC2)n1` [UNC1839A], for which the results for the IC50 at Axl [3] and against Tyro3 [4] were 951 nM and 1070 nM, respectively.
For `CCCCNc1ncc(C(=O)Nc2ccc(CCO)cc2)c(N[C@H]2CC[C@H](O)CC2)n1` [UNC1846A], in that order: 1190 nM and 1070 nM.
For `CCCCNc1ncc(-c2ccc(CCN3CCN(C)CC3)cn2)c(N[C@H]2CC[C@H](O)CC2)n1` [UNC2795A], in that order: 211 nM and 82 nM.
The matching figures for `CCCCNc1ncc(-c2cc(N3CCOCC3)ncn2)c(N[C@H]2CC[C@H](O)CC2)n1` [UNC3196A]: 2130 nM and 1000 nM.
On to `CCCCNc1ncc(-c2cc(NC3CC3)ncn2)c(N[C@H]2CC[C@H](O)CC2)n1` [UNC3193A], for which the IC50 against Axl [3] is 169 nM; at Tyro3 [4], 115 nM.
For `CCCCNc1ncc(C(=O)NC2CCC2)c(N[C@H]2CC[C@H](O)CC2)n1` [UNC2737A], in that order: 491 nM and 443 nM.
For `CCCCNc1ncc(C(=O)NCc2ccncc2)c(N[C@H]2CC[C@H](O)CC2)n1` [UNC1849A], in that order: 1260 nM and 1740 nM.
For `CCCCNc1ncc(-c2ccc(CN3CCOCC3)o2)c(N[C@H]2CC[C@H](O)CC2)n1` [UNC2898A], the IC50 against Axl [3] amounted to 2550 nM; against Tyro3 [4], 374 nM.
The matching figures for `CCCCNc1ncc(-c2ccc(CNCC3CC3)cn2)c(N[C@H]2CC[C@H](O)CC2)n1` [UNC2547A]: 30 nM and 11 nM.
The matching figures for `CCCCCNc1cc(-c2cnc(NCCCC)nc2N[C@H]2CC[C@H](O)CC2)ncn1` [UNC3201A]: 112 nM and 195 nM.
The matching figures for `CCCCNc1ncc(-c2ccc(CNCc3ccccc3)cn2)c(N[C@H]2CC[C@H](O)CC2)n1` [UNC2572A]: 136 nM and 43 nM.
As to `CCCCNc1ncc(C(=O)NCc2ccc(CN3CCOCC3)cc2)c(N[C@H]2CC[C@H](O)CC2)n1` [UNC2735A], the IC50 is 189 nM against Axl [3] and 145 nM on Tyro3 [4].
